Columns and labels:
HeLa = test: MTT cytotoxicity assay, HeLa; assay type: cell-based, human; conditions: 72 h treatment
Experimental: (§1) We then tested whether accumulation of platinum(II) complexes in lysosomes was associated with an increase in lysosomal membrane permeability (LMP). […] The cells were then treated with 1a or 2 at different concentrations.[17] […] Induction of LMP is a known cell death mechanism.[19] Therefore, we examined the cytotoxicity of the platinum(II) complexes towards different cancer cells by means of MTT (3-(4,5-dimethyl-2-thiazolyl)-2,5-diphenyltetrazolium bromide) (Table 1) and naphthol blue black (NBB) staining (Table S4 ^†) assays. […]
(§2) MTT assay Cancer cells (cell density = 4000-6000 cells/100µL) were seeded in a 96-well, flat-bottomed microtitre plate in growth medium (100 µL) and incubated at 37 °C under a 5% CO2 atmosphere for 24 h. Different concentrations of complexes were added and the plates were incubated for 72 h. After a total incubation time of 72 h, MTT in PBS solution (5 mg/mL, 10 µL) was added to each well. The plates were incubated at 37 °C under a 5% CO2 atmosphere for another 4 h, followed by adding 100 µL of sodium dodecyl sulfate (SDS, 10%) in diluted hydrochloric acid to each well. After further in dark at 37 °C overnight, the percentage of survival cells were determined with a microtitre plate reader at 590 nm. […]

breast cancer (MDA) = test: MTT cytotoxicity assay, MDA; assay type: cell-based; conditions: 72 h treatment
Experimental: as §1, §2

[1] = tested on: ovarian carcinoma (A2780); test: MTT cytotoxicity assay, A2780; assay type: cell-based; conditions: 72 h treatment
Experimental: as §1, §2

[2] = tested on: nasopharyngeal carcinoma (SUNE1); test: MTT cytotoxicity assay, SUNE1; assay type: cell-based; conditions: 72 h treatment
Experimental: as §1, §2

B16 melanoma = test: MTT cytotoxicity assay, B16; assay type: cell-based; conditions: 72 h treatment
Experimental: as §1, §2

[3] = tested on: hepatocellular carcinoma cells (HepG2); test: MTT cytotoxicity assay, HepG2; assay type: cell-based; conditions: 72 h treatment
Experimental: as §1, §2

[4] = tested on: non-tumorigenic immortalized liver cells (MIHA); test: MTT cytotoxicity assay, MIHA; assay type: cell-based; conditions: 72 h treatment
Experimental: as §1, §2

HeLa cells [5] = test: Naphthol blue black (NBB) staining assay, HeLa; assay type: cell-based, human; conditions: 72 h incubation, read-out: Anti-proliferative activities towards HeLa cells (NBB staining assay)
Experimental: MTT assay Cancer cells (cell density = 4000-6000 cells/100µL) were seeded in a 96-well, flat-bottomed microtitre plate in growth medium (100 µL) and incubated at 37 °C under a 5% CO2 atmosphere for 24 h. Different concentrations of complexes were added and the plates were incubated for 72 h. […]
Naphthol blue black (NBB) staining assay After a total incubation time of 72 h, the medium was removed and a mixture of 50 µL of formaldehyde (3% in PBS) and 50 µL of NBB solution (0.05% NBB, 0.1 M sodium acetate, 9% acetic acid) was added. After further 30 min incubation, the mixture was removed and each well was washed with deionized water for 3 times. The plates were air-dried and 100 µL of NaOH (50 mg/mL) was added to solubilize the NBB-stained cells. The plates were […]
shaken for 1 h. […]

[6] = tested on: primary bladder cancer cells; test: MTT assay on primary bladder cancer cells; assay type: cell-based, human; conditions: 72 h incubation, read-out: Cytotoxic IC50, primary bladder cancer cells
Experimental: orifice, stored in pre-cooled Hank’s Balanced Solution (HBSS), and then cut with small scissor into about 2-3 mm3. The specimens were then digested with 0.5% collagenase IV at 37 °C for 15 min, filtered through sterile 100 mesh filter screen. The cells were collected by centrifugation at 700 g for 5 min, and then re-suspended in DMEM culture medium supplemented with penicillin (100 units/ml), streptomycin (100 μg/ml) and fungazone (0.25 μg/ml) at 37 °C in 95% air, 5% CO2, and cultured in […]
The medium was replaced continuously every day. The interstitial cells were removed from the primary bladder cancer cells by trypsinization with 10-times diluted enzyme. The cells were used for drug screening when the confluence reached about 70%-80%. […]
(§3) MTT assay Cancer cells (cell density = 4000-6000 cells/100µL) were seeded in a 96-well, flat-bottomed microtitre plate in growth medium (100 µL) and incubated at 37 °C under a 5% CO2 atmosphere for 24 h. […] After further in dark at 37 °C overnight, the percentage of survival cells were determined with a microtitre plate reader at 590 nm.
(§4) Naphthol blue black (NBB) staining assay After a total incubation time of 72 h, the medium was removed and a mixture of 50 µL of formaldehyde (3% in PBS) and 50 µL of NBB solution (0.05% NBB, 0.1 M sodium acetate, 9% acetic acid) was added. […] The percentage of survival cells was determined with a microtitre plate

HeLa cells [7] = test: Sustained cytotoxicity in Transwell plates (MTT), HeLa in lower chamber; assay type: cell-based, human; conditions: upper chamber loaded for 1 h, total 72 h
Experimental: The sustained cytotoxicity of 1a-hydrogel towards HeLa cells was tested in double-chambered Transwell® 24-well plates (Fig. 8a). The plate has a semi-permeable membrane to separate the HeLa cells (lower chamber) from direct contact with hydrogel (upper chamber). After treatment of HeLa cells with 1a-hydrogel (100 μM) at different time intervals, the upper chambers were removed and the HeLa cells were further incubated in the absence of the hydrogel. After a total of 72 h, the cell survival percentage was quantified by MTT assay. […] Therefore, an acidic environment can stimulate a faster release of 1a from 1a-hydrogel resulting in a more rapid cytotoxic effect. As the microenvironment of tumor tissues is often acidic compared to that of normal tissues,[20]1a-hydrogel could potentially achieve selective cytotoxicity towards tumor cells under in vivo conditions. […]
orifice, stored in pre-cooled Hank’s Balanced Solution (HBSS), and then cut with small scissor into about 2-3 mm3. The specimens were then digested with 0.5% collagenase IV at 37 °C for 15 min, filtered through sterile 100 mesh filter screen. […]
as §3
as §4, with “plate […]” for “plate”
and 72 h). […] After further in dark at 37 °C overnight, the percentage of survival cells were determined with a microtitre plate reader at 590 nm. […]

HeLa cells [8] = test: Soft agar colony formation assay; assay type: cell-based, human; conditions: 2 μM, 7 day
Experimental: HeLa cells (0.07 × 106) were seeded with 600 µL cultured medium in the lower chambers of the double-decked Transwell® 24-well plates and incubated at 37 °C under a 5% CO2 atmosphere for 24 h. A uniform scratch was introduced on each well using a […] and the images of the scratches were recorded (0 h).
Berberine@1a-hydrogel and 1a-hydrogel in 100 µL medium was separately introduced to the upper chamber. The upper chambers were detached from the lower chamber after 4 h or 8 h incubation time. The images of the scratches were captured after 24 h incubation time.
Soft agar colony formation assay
HeLa cells (1.5 × 105) were mixed with solvent control or 1a (2 µM) in 2 mL medium with 0.35% soft agar per well in a 6-well plate coated with medium with 0.7% soft agar. 1 mL medium containing solvent control or 1a (2 µM) was added to the soft agar after the soft agar was solidified. The imaging was captured after incubating the plate at 37 °C under a 5% CO2 atmosphere for 7 day.

HeLa cells [9] = test: Lysosomal membrane permeability by acridine orange staining; assay type: cell-based, human; conditions: 5 or 10 μM, 30 min, 37 °C
[10] = pH 7.4, 1a-hydrogel and cisplatin 100 μM

Q: `Cc1cccc(C)c1[N+]#[C][Pt-2]12[c]3ccccc3-c3cccc([n+]31)-c1cc[nH][n+]12.[Cl-]` (centres unmarked) [Complex 1a, [Pt(C^N^N^pyr)(C?NR^1)]Cl] was tested. Which IC50 (HeLa) did it give?
A: Its IC50 is 4.4 ± 0.6 µM.

Q: What about the IC50 (breast cancer (MDA)) of the same molecule?
A: Its IC50 is 1.6 ± 0.4 µM.

Q: And the IC50 [1]?
A: The IC50 was 1.2 ± 0.1 µM.

Q: And the IC50 [2]?
A: The IC50 was 3.5 ± 0.8 µM.

Q: And the IC50 (B16 melanoma)?
A: The IC50 was 0.66 ± 0.04 µM.

Q: What about the IC50 [3] of the same molecule?
A: The IC50 was 1.3 ± 0.1 µM.

Q: What about the IC50 [4] of the same molecule?
A: Its IC50 is 6.36 ± 0.15 µM.

Q: And the IC50 (HeLa cells [5])?
A: The IC50 was 1.05 ± 0.06 µM.

Q: And the IC50 [6]?
A: The IC50 was 6.9 µM.

Q: What about the Cell survival (HeLa cells [7]; [10]) of the same molecule?
A: The Cell survival was roughly 15%.

Q: And the Anchorage-independent colony formation (HeLa cells [8])?
A: The Anchorage-independent colony formation was “inhibited anchorage-independent colony formation”.

Q: What about the “Lysosomal membrane permeability (red fluorescence of acridine orange)” value (HeLa cells [9]) of the same molecule?
A: The value was “dose-dependent reductions of red fluorescence”.

Q: For `CCCC[N+]#[C][Pt-2]12[c]3ccccc3-c3cccc([n+]31)-c1cc[nH][n+]12.[Cl-]` (centres unmarked) [Complex 2], which IC50 (HeLa) is on record?
A: Its IC50 is 5.1 ± 1.1 µM.

Q: What about the IC50 (breast cancer (MDA)) of the same molecule?
A: Its IC50 is 5 ± 0.2 µM.

Q: And the IC50 [1]?
A: Its IC50 is 3.3 ± 0.2 µM.

Q: What about the IC50 [2] of the same molecule?
A: The IC50 was 4.4 ± 1 µM.

Q: What about the IC50 (B16 melanoma) of the same molecule?
A: The IC50 was 0.85 ± 0.07 µM.

Q: And the IC50 [3]?
A: Its IC50 is 4 ± 0.8 µM.

Q: And the IC50 [4]?
A: Its IC50 is 8.12 ± 1.27 µM.

Q: And the IC50 (HeLa cells [5])?
A: Its IC50 is 2.28 ± 0.18 µM.

Q: And the “Lysosomal membrane permeability (red fluorescence of acridine orange)” value (HeLa cells [9])?
A: Its value is “dose-dependent reductions of red fluorescence”.

Q: Which results are given for `N.N.[Cl][Pt][Cl]` [Cisplatin]?
A: IC50 (HeLa cells [5]): 4.29 ± 0.36 µM; Cell survival (HeLa cells [7]; pH 6.0, 100 μM): ~20%; Cell survival (HeLa cells [7]; [10]): ~20%

Q: What does the source list for `COc1ccc([N+]#[C][Pt-2]23[c]4ccccc4-c4cccc([n+]42)-c2cc[nH][n+]23)cc1.O=S(=O)(O)C(F)(F)F` (centres unmarked) [Complex 3]?
A: IC50 (HeLa): 3.8 ± 0.5 µM; IC50 (breast cancer (MDA)): 4.2 ± 1 µM; IC50 [1]: 2.7 ± 0.1 µM; IC50 [2]: 3.9 ± 0.7 µM; IC50 (B16 melanoma): 2.6 ± 0.2 µM; IC50 [3]: 2.7 ± 0.2 µM; IC50 [4]: 9.56 ± 2.15 µM; IC50 (HeLa cells [5]): 1.98 ± 0.21 µM

Q: `O=S(=O)(O)C(F)(F)F.[C](#[N+]c1ccc2ccccc2c1)[Pt-2]12[c]3ccccc3-c3cccc([n+]31)-c1cc[nH][n+]12` (centres unmarked) [Complex 4] was tested. Which IC50 (HeLa) did it give?
A: Its IC50 is 8.3 ± 0.9 µM.

Q: And the IC50 (breast cancer (MDA))?
A: The IC50 was 7.4 ± 0.5 µM.

Q: What about the IC50 [1] of the same molecule?
A: The IC50 was 5 ± 0.2 µM.

Q: And the IC50 [2]?
A: Its IC50 is 7.9 ± 1.3 µM.

Q: What about the IC50 (B16 melanoma) of the same molecule?
A: The IC50 was 3 ± 0.3 µM.

Q: What about the IC50 [3] of the same molecule?
A: The IC50 was 6.2 ± 0.6 µM.

Q: And the IC50 [4]?
A: Its IC50 is 13.5 ± 2.12 µM.

Q: What about the IC50 (HeLa cells [5]) of the same molecule?
A: The IC50 was 3.52 ± 0.89 µM.

Q: Which IC50 (HeLa) does the source give for `COCCOCCOc1ccc([N+]#[C][Pt-2]23[c]4ccccc4-c4cccc([n+]42)-c2cc[nH][n+]23)cc1.O=S(=O)(O)C(F)(F)F` (centres unmarked) [Complex 5] here?
A: Its IC50 is 14.4 ± 3.5 µM.

Q: What about the IC50 (breast cancer (MDA)) of the same molecule?
A: The IC50 was 8.3 ± 1.6 µM.

Q: What about the IC50 [1] of the same molecule?
A: The IC50 was 11.7 ± 2.1 µM.

Q: And the IC50 [2]?
A: Its IC50 is 12.3 ± 4.2 µM.

Q: And the IC50 (B16 melanoma)?
A: Its IC50 is 6.2 ± 0.5 µM.

Q: What about the IC50 [3] of the same molecule?
A: The IC50 was 9 ± 1.6 µM.

Q: And the IC50 [4]?
A: Its IC50 is 20.2 ± 2.92 µM.

Q: And the IC50 (HeLa cells [5])?
A: Its IC50 is 9.47 ± 1.92 µM.

Q: How did the IC50 (HeLa) turn out when `Cc1cccc(C)c1[N+]#[C][Pt-2]12[c]3ccccc3-c3cccc([n+]31)-c1cc[nH][n+]12.O=S(=O)(O)C(F)(F)F` (centres unmarked) [Complex 1b] was run?
A: The IC50 was 2.8 ± 0.2 µM.

Q: And the IC50 (breast cancer (MDA))?
A: Its IC50 is 2.1 ± 0.5 µM.

Q: And the IC50 [1]?
A: Its IC50 is 1.2 ± 0.1 µM.

Q: And the IC50 [2]?
A: The IC50 was 2.8 ± 0.6 µM.

Q: What about the IC50 (B16 melanoma) of the same molecule?
A: The IC50 was 0.42 ± 0.02 µM.

Q: What about the IC50 [3] of the same molecule?
A: Its IC50 is 1.7 ± 0.4 µM.

Q: What about the IC50 [4] of the same molecule?
A: Its IC50 is 5.23 ± 0.62 µM.

Q: And the IC50 (HeLa cells [5])?
A: Its IC50 is 0.9 ± 0.17 µM.
